According to article PMC5584945, “Evaluation of robenidine analog NCL195 as a novel broad-spectrum antibacterial agent” (PLoS ONE, 2017):
≈ marks a conversion by molar mass, not a printed value. Read-outs that look alike come from different tables or passages of the source.

Tests used:
S. pneumoniae D39 [1] = assay: Membrane potential, DiOC2(3) fluorescence; type: cell-based, Streptococcus pneumoniae; conditions: 16 μg/ml, pre-incubated 5 min; versus untreated and ampicillin
Protocol: To further examine the mechanism underlying the perturbation of the cell membrane of S. pneumoniae or S. aureus by the NCL compounds, the membrane potential of the cells was measured by fluorescence spectrometry using (DiOC2(3), essentially as described previously. Briefly, […] cells from an overnight HBA plate were grown in Todd-Hewitt broth supplemented with 1% yeast extract (THY) at 37°C, 5% CO2 until A600 nm = 0.5. […] The cuvette was then placed in a LS 55 Fluorescence Spectrometer (PerkinElmer) set at Ex. 488 nm/Em. 620 nm, with excitation and emission slit widths at 5 nm and 7 nm, respectively). […] All assays were performed at least twice.

[2] = Microsomal metabolic stability; type: in vitro ADME; conditions: for microsomal CLint at 0.4 μg/ml / half-life at 0.4 μg/ml: liver microsomes, pH 7.4; for microsomal CLint at 0.4 μg/ml: read-out: CLINT; for Predicted EH: hepatic extraction ratio; for Predicted CLblood: microsome-predicted; for half-life at 0.4 μg/ml: 0.4 μg/ml compound, 0.4 mg/ml protein, NADPH
Protocol: The metabolic stability assay was performed by incubating 0.4 μg/ml of each test compound with human and mouse liver microsomes (Xenotech, Lot# 1210057 and 1310211, respectively) suspended in 0.1 M pH 7.4 phosphate buffer at 37°C and 0.4 mg/ml protein concentration. The metabolic reaction was initiated by the addition of an NADPH-regenerating system (i.e. NADPH is the cofactor required for CYP450-mediated metabolism) and quenched at various time points over a 60 min incubation period by the addition of acetonitrile containing diazepam as internal standard. Control samples (containing no NADPH) were included (and quenched at 2, 30 and 60 min) to monitor for potential degradation in the absence of cofactor. Test compound concentration vs time data were fitted to an exponential decay function to determine the first-order rate constant for substrate depletion. This was used to calculate a degradation half-life (T1/2), in vitro intrinsic clearance (CLINT), microsome-predicted blood clearance (CLblood) and a microsome-predicted hepatic extraction ratio (EH) according to the in vitro half-life method of Obach[53].

S. pneumoniae D39 [3] = assay: Minimum bactericidal concentration (MBC); type: cell-based; conditions: Streptococcus pneumoniae, 99.9% colony count reduction, read-out: MBC
MDBK = assay: Real-time cell viability, RealTime-Glo MT; type: cell-based, bovine; conditions: 2 or 8 μg/ml, up to 20 h post-treatment
Excerpt: (§1) In order to ensure minimal off target mammalian cell cytotoxicity, we assayed NCL812, NCL195 and NCL219 for in vitro cytotoxicity using a panel of adherent mammalian cell lines: Caco-2 (human colorectal adenocarcinoma cell line), HEL 299 (non-cancerous human lung fibroblast cell line), Hep G2 (human hepatocellular carcinoma cell line), MDBK (normal bovine kidney cell line) and MCF7 (human mammary gland adenocarcinoma cell line). Cell lines were maintained in Dulbecco’s Modified Eagle’s Medium (DMEM; […] After 24 h incubation, media was removed, washed once with medium without antibiotics and fresh medium supplemented with 10% (vol/vol) FBS was added. […] Following exposure for 24 h, WST-1 reagent was added to each well at a final concentration of 10%. […] The IC50 value for each compound against each cell line was determined via non-linear regression (three parameters) using GraphPad Prism v6 software. The robustness of assays was confirmed with selected cell lines (Hep G2 and MDBK) seeded onto a 96–well Microwell Nunclon Delta Surface plate (Thermo Scientific Nunc; Cat No: 136101) at 5 × 10^4 cells per well.

[4] = test system: vancomycin-resistant enterococci (VRE); assay: MIC, broth micro-dilution (CLSI); type: cell-based, enterococci (porcine isolates); conditions: for MIC50 / MIC90 / MIC: Enterococcus, VRE
Caco-2 = assay: In vitro cytotoxicity, WST-1; type: cell-based; conditions: Homo sapiens, 24 h exposure, read-out: IC50 values ± SEM
Excerpt: as §1

Hep G2 = assay: In vitro cytotoxicity, WST-1; type: cell-based; conditions: Homo sapiens, HepG2; 24 h exposure; read-out: IC50 values ± SEM
Excerpt: as §1

MCF7 = assay: In vitro cytotoxicity, WST-1; type: cell-based; conditions: Homo sapiens, 24 h exposure, read-out: IC50 values ± SEM
Excerpt: as §1

HEL 299 = assay: In vitro cytotoxicity, WST-1; type: cell-based; conditions: Homo sapiens, 24 h exposure, read-out: IC50 values ± SEM
Excerpt: as §1

[5] = Kinetic solubility by nephelometry; type: physicochemical; conditions: kinetic from dmso stock
[6] = S3 Table isolates, absence of FBS

Q: Which results are given for `C/C(=N\NC(=N)N/N=C(\C)c1ccc(C(C)(C)C)cc1)c1ccc(C(C)(C)C)cc1` [NCL219, (E)-N'-((E)-1-(4-(tert-butyl)phenyl)ethylidene)-2-(1-(4-(tert-butyl)phenyl)ethylidene)hydrazine-1-carboximidhydrazide]?
A: Effect on generated membrane potential (S. pneumoniae D39 [1]): large reduction in the magnitude of the generated membrane potential; microsomal CLint at 0.4 μg/ml ([2]; human): 94 µL/min/mg; Predicted EH ([2]; human): 0.79; Predicted CLblood ([2]; human): 16 mL/min/kg; half-life at 0.4 μg/ml ([2]; human): 18 min; half-life at 0.4 μg/ml ([2]; mouse): 14 min; microsomal CLint at 0.4 μg/ml ([2]; mouse): 121 µL/min/mg; Predicted EH ([2]; mouse): 0.72; Predicted CLblood ([2]; mouse): 87 mL/min/kg; MBC (S. pneumoniae D39 [3]): 4 µg/mL (≈ 9.86 µM); Effect on cell viability (real-time) (MDBK): had a demonstrable effect on viability at 2 μg/ml; Fold increase of MIC range in the presence of 10% FBS ([4]; 10% FBS versus no FBS): 8 fold; MIC range ([4]; 20 isolates): 1 to 2 µg/mL; MIC50 ([4]; S3 Table isolates, 10% FBS): 8 µg/mL (≈ 19.7 µM); MIC90 ([4]; S3 Table isolates, 10% FBS): 16 µg/mL (≈ 39.4 µM); MIC50 [4, 6]: 2 µg/mL (≈ 4.93 µM); MIC90 [4, 6]: 2 µg/mL (≈ 4.93 µM); MIC ([4]; VRE 1 (49 FR), 10% FBS): 16 µg/mL (≈ 39.4 µM); MIC ([4]; VRE 1 (49 FR), absence of FBS): 2 µg/mL (≈ 4.93 µM); MIC ([4]; VRE 2 (53 FR), 10% FBS): 8 µg/mL (≈ 19.7 µM); MIC ([4]; VRE 2 (53 FR), absence of FBS): 2 µg/mL (≈ 4.93 µM); MIC ([4]; VRE 3 (55 FR), 10% FBS): 8 µg/mL (≈ 19.7 µM); MIC ([4]; VRE 3 (55 FR), absence of FBS): 2 µg/mL (≈ 4.93 µM); MIC ([4]; VRE 4 (57 FR), 10% FBS): 8 µg/mL (≈ 19.7 µM); MIC ([4]; VRE 4 (57 FR), absence of FBS): 2 µg/mL (≈ 4.93 µM); MIC ([4]; VRE5 (58 FR), 10% FBS): 8 µg/mL (≈ 19.7 µM); MIC ([4]; VRE5 (58 FR), absence of FBS): 2 µg/mL (≈ 4.93 µM); MIC ([4]; VRE 6 (59 FR), 10% FBS): 8 µg/mL (≈ 19.7 µM); MIC ([4]; VRE 6 (59 FR), absence of FBS): 2 µg/mL (≈ 4.93 µM); MIC ([4]; VRE 7 (270 G), 10% FBS): 16 µg/mL (≈ 39.4 µM); MIC ([4]; VRE 7 (270 G), absence of FBS): 2 µg/mL (≈ 4.93 µM); MIC ([4]; VRE 8 (277 G), 10% FBS): 8 µg/mL (≈ 19.7 µM); MIC ([4]; VRE 8 (277 G), absence of FBS): 1 µg/mL (≈ 2.47 µM); MIC ([4]; VRE 9 (61 FR), 10% FBS): 8 µg/mL (≈ 19.7 µM); MIC ([4]; VRE 9 (61 FR), absence of FBS): 1 µg/mL (≈ 2.47 µM); MIC ([4]; VRE 10 (62 FR), 10% FBS): 16 µg/mL (≈ 39.4 µM); MIC ([4]; VRE 10 (62 FR), absence of FBS): 1 µg/mL (≈ 2.47 µM); MIC ([4]; VRE 11 (284 G), 10% FBS): 8 µg/mL (≈ 19.7 µM); MIC ([4]; VRE 11 (284 G), absence of FBS): 2 µg/mL (≈ 4.93 µM); MIC ([4]; VRE 12 (290 G), 10% FBS): 8 µg/mL (≈ 19.7 µM); MIC ([4]; VRE 12 (290 G), absence of FBS): 2 µg/mL (≈ 4.93 µM); MIC ([4]; VRE 13 (251 G), 10% FBS): 8 µg/mL (≈ 19.7 µM); MIC ([4]; VRE 13 (251 G), absence of FBS): 2 µg/mL (≈ 4.93 µM); MIC ([4]; VRE 14 (252 G), 10% FBS): 8 µg/mL (≈ 19.7 µM); MIC ([4]; VRE 14 (252 G), absence of FBS): 2 µg/mL (≈ 4.93 µM); MIC ([4]; VRE 15 (63 FR), 10% FBS): 8 µg/mL (≈ 19.7 µM); MIC ([4]; VRE 15 (63 FR), absence of FBS): 2 µg/mL (≈ 4.93 µM); MIC ([4]; VRE 16 (60 FR), 10% FBS): 8 µg/mL (≈ 19.7 µM); MIC ([4]; VRE 16 (60 FR), absence of FBS): 2 µg/mL (≈ 4.93 µM); MIC ([4]; VRE 17 (45 FR), 10% FBS): 8 µg/mL (≈ 19.7 µM); MIC ([4]; VRE 17 (45 FR), absence of FBS): 2 µg/mL (≈ 4.93 µM); MIC ([4]; VRE 18 (69 W), 10% FBS): 8 µg/mL (≈ 19.7 µM); MIC ([4]; VRE 18 (69 W), absence of FBS): 2 µg/mL (≈ 4.93 µM); MIC ([4]; VRE 19 (70 W), 10% FBS): 8 µg/mL (≈ 19.7 µM); MIC ([4]; VRE 19 (70 W), absence of FBS): 2 µg/mL (≈ 4.93 µM); MIC ([4]; VRE 20 (78 W), 10% FBS): 8 µg/mL (≈ 19.7 µM); MIC ([4]; VRE 20 (78 W), absence of FBS): 2 µg/mL (≈ 4.93 µM); MIC range ([4]; S3 Table isolates, 10% FBS): 8 to 16 µg/mL; MIC range [4, 6]: 1 to 2 µg/mL; IC50 (Caco-2): 7.5 ± 0.1 µg/mL (≈ 18.5 µM); IC50 (Hep G2): 7.1 ± 0.1 µg/mL (≈ 17.5 µM); IC50 (MCF7): > 128 µg/mL; IC50 (HEL 299): 21.2 ± 0.2 µg/mL (≈ 52.3 µM); solubility ([5]; pH 2.0): 0.78 to 1.6 µg/mL (≈ 1.92 to 3.94 µM); solubility ([5]; pH 6.5): 0.78 to 1.6 µg/mL (≈ 1.92 to 3.94 µM)
